The term Km denotes the substrate concentration at which the rate is half of its maximum.

This is an account of results in patent publication US6166290A, “Glutathione-S-conjugate transport in plants” (The Trustees of the University of Pennsylvania, priority 1997, dated 2000).

In series [1] the test system is membrane vesicles purified from pYES3-transformed DTY168 cells. Nature of the series: DNP-GS uptake by membrane vesicles from pYES3 (empty vector)-transformed DTY168 cells. In kind it is biochemical, Saccharomyces cerevisiae. The procedure:
S. cerevisiae strain DTY168 (MATα his6, leu2-3, -112, ura3-52 ycf1::hisG) was transformed with pYES3-AtMRP1 or empty vector lacking the AtMRP1 insert (pYES3) by the LiOAc/PEG method (Giest et al., 1991, Yeast 7:253-263) and selected for uracil prototrophy by plating on AHC medium containing tryptophan (Kim et al., 1994, supra).
For the preparation of membrane vesicles, 15 ml volumes of stationary phase cultures of the transformants were diluted into 1 L of fresh AHC medium and grown to an OD600 nm of about 1.2. Membrane vesicles were purified as described herein and in Kim et al. (1995, supra).
DNP-GS uptake was measured as described herein in 200 μl reaction volumes containing 3 mM ATP, 3 mM MgSO4, 5 μM gramicidin-D, 10 mM creatine phosphate, 16 units/ml creatine kinase, 50 mM KCl, 1 mg/ml BSA, 400 mM sorbitol, 25 mM Tris-Mes (pH 8.0) and the indicated concentrations of [^3 H]DNP-GS (17.4 mCi/mmol).

Series [2] has as its system vacuolar membrane vesicles purified from DTY167 cells (ycf1Δ mutant). In kind it is biochemical, Saccharomyces cerevisiae. Conditions: 5 μM gramicidin D. The procedure:
For the routine preparation of vacuolar membrane vesicles, 15 ml of stationary phase cultures of DTY165 or DTY167 were diluted into 1-liter volumes of fresh YPD medium, grown for 24 hours at 30° C. to an OD600 nm of approximately 0.8 and collected by centrifugation. After washing with distilled water, the cells were converted to spheroplasts with Zymolyase 20T (ICN) (Kim et al., 1994, supra) and intact vacuoles were isolated by flotation centrifugation of spheroplast lysates on Ficoll 400 step gradients as described by Roberts et al. (1991, Methods. Enzymol. 194:644-661). Both the spheroplast lysis buffer and Ficoll gradients contained 2 mg/ml bovine serum albumin, 1 μg/ml aprotinin, 1 μg/ml leupeptin, 1 μg/ml pepstatin, and 1 mM PMSF to minimize proteolysis. The resulting vacuole fraction was vesiculated in 5 mM MgCl2, 25 mM KCl, 10 mM Tris-Mes (pH 6.9) containing 2 mg/ml bovine serum albumin, 1 μg/ml aprotinin, 1 μg/ml leupeptin, 1 μg/ml pepstatin, and 1 mM PMSF, pelleted by centrifugation at 37,000× g for 25 min, and resuspended in suspension medium (1.1 M glycerol, 2 mM dithiothreitol, 1 mM Tris-EGTA, 2 mg/ml bovine serum albumin, 1 μg/ml aprotinin, 1 μg/ml leupeptin, 1 μg/ml pepstatin, 1 mM PMSF, 5 mM Tris-Mes, pH 7.6) (Kim et al., 1995, J. Biol. Chem. 270:2630-2635).
Unless otherwise indicated, [^3 H]DNP-GS uptake was measured at 25° C. in 200 μl reaction volumes containing 3 mM ATP, 3 mM MgSO4, 5 μM gramicidin-D, 10 mM creatine phosphate, 16 units/ml creatine kinase, 50 mM KC 1, 1 mg/ml bovine serum albumin, 400 mM sorbitol, 25 mM Tris-Mes (pH 8.0), and 66.2 μM [^3 H]DNP-GS (8.7 mCi/mmol) (Li et al., 1995, supra). […] Uptake was initiated by the addition of vacuolar membrane vesicles (10-15 μg of membrane protein), brief mixing of the samples on a vortex mixer and uptake was then allowed to proceed for 1-60 minutes. Uptake was terminated by the addition of 1 ml of ice-cold wash medium (400 mM sorbitol, 3 mM Tris-Mes, pH 8.0) and vacuum filtration of the suspension through prewetted Millipore HA cellulose nitrate membrane filters (pore diameter, 0.45 μm). The filters were rinsed twice with 1 ml of ice-cold wash medium and air-dried, and radioactivity was determined by liquid scintillation counting in BCS mixture (Amersham Corp.). Nonenergized [^3 H]DNP-GS uptake and extravesicular solution trapped on the filters were enumerated by the same procedure except that ATP and Mg^2 +were omitted from the uptake medium.

In series [3] the test system is vacuolar GS-X pump (vacuolar membrane vesicles, V. radiata hypocotyls). In words: GS-conjugate uptake by vacuolar membrane vesicles from etiolated hypocotyls of V. radiata. It is filed as biochemical, Vigna radiata. The procedure:
Values shown are means ±SE (n=3).
Vacuolar membrane vesicles were purified from etiolated hypocotyls of V. radiata cv.
Unless otherwise indicated, [^3 H]medicarpin or [3H]medicarpin-GS uptake was measured at 25° C. in 200 μl reaction volumes containing 3 mM ATP, 3 mM MgSO4, 10 mM creatine phosphate, 16 U/ml creatine kinase, 50 mM KCl, 0.1% (w/v) BSA, 400 mM sorbitol and 25 mM Tris-Mes buffer, pH 8.0. Uptake was initiated by the addition of 12 μl membrane vesicles (30-40 μg protein) and brief mixing of the samples on a vortex mixer. Uptake was terminated by the addition of 1 ml ice-cold wash medium (400 mM sorbitol, 3 mM Tris-Mes, pH 8.0) and vacuum filtration of the suspension through prewetted HA cellulose nitrate filters (pore diameter 0.45 μm). The filters were rinsed twice with a 1 ml ice-cold wash medium, air-dried and radioactivity was determined by liquid scintillation counting.

Series [4] addresses T1, YCF1 (vacuolar membrane vesicles purified from DTY165 cells) (Saccharomyces cerevisiae, UniProt P39109).
T1 construct: endogenous in cells; host or cells: S. cerevisiae DTY165 (wild type YCF1), vacuolar membrane vesicles
Nature of the series: [3H]DNP-GS uptake by vacuolar membrane vesicles purified from DTY165 cells. In kind it is biochemical. Conditions: 5 μM gramicidin D, read-out: I50 for MgATP-dependent, uncoupler-insensitive DNP-GS uptake. In short, it runs like this: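 ATP-dependent [3H]DNP-GS (66.2 μM) transport measured by filtration and scintillation counting of Ficoll-purified yeast vacuolar vesicles (DTY165 wild type; DTY167 ycf1Δ), 1–60 min at 25 °C in sorbitol/Tris-Mes pH 8.0 with 3 mM ATP, 3 mM MgSO4 and gramicidin-D. Nonenergized uptake without ATP/Mg2+.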

Series [5] has as its system endogenous GS-X pump of plant vacuolar membranes. Conditions: vanadate; read-out: I50 for inhibition of the endogenous vacuolar GS-X pump of plant cells; cited from earlier work.
Series [6] relates to vacuolar GS-X pump (vacuolar membrane vesicles, Z. mays roots). Nature of the series: GS-conjugate uptake by vacuolar membrane vesicles from roots of Z. mays. In kind it is biochemical, Zea mays.
Substrate in series [7]: N[C@@H](CCC(=O)N[C@@H](CSSC[C@H](NC(=O)CC[C@H](N)C(=O)O)C(=O)NCC(=O)O)C(=O)NCC(=O)O)C(=O)O
Nature of the series: cells, lysate or membranes. Conditions: other: MgATP-dependent, uncoupler-insensitive; pH 8.0.

Where [8] appears, read: read-out: I50 for uptake of IAA-GS.

Where two headings read alike, the source gives them in different places.

T1 sequence (P39109 whole entry): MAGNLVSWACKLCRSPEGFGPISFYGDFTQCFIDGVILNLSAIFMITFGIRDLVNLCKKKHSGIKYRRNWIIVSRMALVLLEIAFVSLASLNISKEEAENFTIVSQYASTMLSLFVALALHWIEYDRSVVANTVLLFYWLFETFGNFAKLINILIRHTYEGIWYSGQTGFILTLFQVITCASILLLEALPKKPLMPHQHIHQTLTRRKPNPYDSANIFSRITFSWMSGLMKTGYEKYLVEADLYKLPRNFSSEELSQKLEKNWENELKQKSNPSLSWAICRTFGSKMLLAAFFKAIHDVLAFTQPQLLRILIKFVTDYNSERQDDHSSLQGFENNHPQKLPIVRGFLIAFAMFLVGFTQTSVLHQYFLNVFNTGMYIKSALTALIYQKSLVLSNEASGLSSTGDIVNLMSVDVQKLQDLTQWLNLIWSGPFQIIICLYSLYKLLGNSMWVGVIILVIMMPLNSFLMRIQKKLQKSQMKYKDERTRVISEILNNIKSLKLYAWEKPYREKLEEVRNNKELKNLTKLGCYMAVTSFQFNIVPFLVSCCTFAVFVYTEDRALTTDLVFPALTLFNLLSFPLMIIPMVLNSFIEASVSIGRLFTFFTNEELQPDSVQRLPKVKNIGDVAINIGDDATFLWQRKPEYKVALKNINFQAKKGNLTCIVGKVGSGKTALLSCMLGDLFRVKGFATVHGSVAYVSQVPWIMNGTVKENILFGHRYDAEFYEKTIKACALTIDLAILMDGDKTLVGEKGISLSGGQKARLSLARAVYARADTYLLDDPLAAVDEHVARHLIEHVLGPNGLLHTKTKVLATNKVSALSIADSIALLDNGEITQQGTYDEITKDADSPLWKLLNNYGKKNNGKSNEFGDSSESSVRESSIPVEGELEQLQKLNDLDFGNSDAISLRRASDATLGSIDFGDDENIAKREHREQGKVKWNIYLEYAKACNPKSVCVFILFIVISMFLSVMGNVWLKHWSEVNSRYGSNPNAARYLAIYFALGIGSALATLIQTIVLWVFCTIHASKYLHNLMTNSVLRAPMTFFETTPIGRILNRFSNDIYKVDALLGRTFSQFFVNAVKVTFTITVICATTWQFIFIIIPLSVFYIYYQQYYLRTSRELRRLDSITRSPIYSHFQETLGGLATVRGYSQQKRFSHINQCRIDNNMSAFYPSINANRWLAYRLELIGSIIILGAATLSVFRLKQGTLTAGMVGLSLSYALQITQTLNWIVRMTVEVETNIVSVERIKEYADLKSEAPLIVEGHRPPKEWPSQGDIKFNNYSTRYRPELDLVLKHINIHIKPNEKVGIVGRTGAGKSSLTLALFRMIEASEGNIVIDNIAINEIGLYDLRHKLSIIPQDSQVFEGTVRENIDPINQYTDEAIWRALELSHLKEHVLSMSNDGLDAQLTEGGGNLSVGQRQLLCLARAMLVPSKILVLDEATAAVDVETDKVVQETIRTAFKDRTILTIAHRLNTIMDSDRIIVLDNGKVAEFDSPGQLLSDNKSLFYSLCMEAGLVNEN

With `[O]=[V]([O-])([O-])[O-]` [Vanadate], in series [1], the “sensitivity of DNP-GS uptake to vanadate” value is given as “insensitive”. The “I50 for MgATP-dependent, uncoupler-insensitive DNP-GS uptake” value in series [2] is listed as “Insensitive”. Further, the IC50 in series [3] (V. radiata, read-out: I50 for uptake of C3G-GS) is 7.9 µM; in series [3] (setting [8]), 6.5 µM; in series [4] (listed as vanadate) it was 179 µM; in series [4] it was 179 µM; in series [5], 7.5 ± 3.9 µM; in series [6] (read-out: I50 for uptake of ABA-GS), more than 150 µM. Besides, the values for the IC50 in series [6] (read-out: I50 for uptake of C3G-GS) and in series [6] (setting [8]) were 8.2 µM and 5.5 µM, respectively. The “inhibition of MgATP-dependent [3H]medicarpin-GS uptake” value in series [3] (vanadate 10 μM, DNP-GS 100 μM, gramicidin D) is recorded as “more than 85%”.

B1: AtMRP2 (Arabidopsis thaliana) (protein)
chain: MGFEFIEWYCKPVPNGVWTKQVANAFGAYTPCATDSFVLGISQLVLLVLCLYRIWLALKDHKVERFCLRSRLYNYFLALLAAYATAEPLFRLIMGISVLDFDGPGLPPFEAFGLGVKAFAWGAVMVMILMETKIYIRELRWYVRFAVIYALVGDMVLLNLVLSVKEYYSSYVLYLYTSEVGAQVLFGILLFMHLPNLDTYPGYMPVRSETVDDYEYEEISDGQQICPEKHANIFDKIFFSWMNPLMTLGSKRPLTEKDVWYLDTWDQTETLFTSFQHSWDKELQKPQPWLLRALNNSLGGRFWWGGFWKIGNDCSQFVGPLLLNQLLKSMQEDAPAWMGYIYAFSIFVGVVFGVLCEAQYFQNVMRVGYRLRSALIAAVFRKSLRLTNEGRRKFQTGKITNLMTTDAESLQQICQSLHTMWSAPFRIIIALILLYQQLGVASLIGALLLVLMFPLQTVIISKMQKLTKEGLQRTDKRIGLMNEVLAAMDTVKCYAWENSFQSKVQTVRDDELSWFRKSQLLGALNMFILNSIPVLVTIVSFGVFTLLGGDLTPARAFTSLSLFAVLRFPLFMLPNIITQVVNANVSLKRLEEVLATEERILLPNPPIEPGEPAISIRNGYFSWDSKGDRPTLSNINLDVPLGSLVAVVGSTGEGKTSLISAILGELPATSDAIVTLRGSVAYVPQVSWIFNATVRDNILFGSPFDREKYERAIDVTSLKHDLELLPGGDLTEIGERGVNISGGQKQRVSMARAVYSNSDVYIFDDPLSALDAHVGQQVFEKCIKRELGQKTRVLVTNQLHFLSQVDRIVLVHEGTVKEEGTYEELSSNGPLFQRLMENAGKVEEYSEENGEAEADQTAEQPVANGNTNGLQMDGSDDKKSKEGNKKGGKSVLIKQEERETGVVSWRVLKRYQDALGGAWVVMMLLLCYVLTEVFRVTSSTWLSEWTDAGTPKSHGPLFYNLIYALLSFGQVLVTLTNSYWLIMSSLYAAKKLHDNMLHSILRAPMSFFHTNPLGRIINRFAKDLGDIDRTVAVFVNMFMGQVSQLLSTVVLIGIVSTLSLWAIMPLLVLFYGAYLYYQNTAREVKRMDSISRSPVYAQFGEALNGLSTIRAYKAYDRMADINGRSMDNNIRFTLVNMGANRWLGIRLETLGGLMIWLTASFAVMQNGRAENQQAFASTMGLLLSYALNITSLLTGVLRLASLAENSLNAVERVGNYIEIPPEAPPVIENNRPPPGWPSSGSIKFEDVVLRYRPQLPPVLHGVSFFIHPTDKVGIVGRTGAGKSSLLNALFRIVEVEKGRILIDDCDVGKFGLMDLRKVLGIIPQSPVLFSGTVRFNLDPFGEHNDADLWESLERAHLKDTIRRNPLGLDAEVSEAGENFSVGQRQLLSLSRALLRRSKILVLDEATAAVDVRTDALIQKTIREEFKSCTMLIIAHRLNTIIDCDKILVLDSGRVQEFSSPENLLSNEGSSFSKMVQSTGAANAEYLRSLVLDNKRAKDDSHHLQGQRKWLASSRWAAAAQFALAASLTSSHNDLQSLEIEDDSSILKRTNDAVVTLRSVLEGKHDKEIAESLEEHNISREGWLSSLYRMVEGLAVMSRLARNRMQQPDYNFEGNTFDWDNVEM
Take B1: the Km in series [7] was determined as 73.0 ± 15.1 µM.
